Key:
XYLT1 mRNA expression = XYLT1 mRNA expression in NHDFs by qRT-PCR; assay type: cell-based, human; conditions: 48 h; for TGF-β1-mediated XYLT1 mRNA expression relative to TGF-β1 only: with TGF-β1 (5 μg/L)
Experimental: A former established cell culture model was utilized to investigate the effect of putative XT-I inhibitors on NHDFs. The inhibition studies were carried out with final inhibitor concentrations of 0.5, 1.0, 2.0 or 4.0 μM diluted in fully supplemented DMEM. In brief, unless otherwise stated, NHDFs were cultivated with a low density of 50 cells per mm^2 on a hard tissue culture substrate (100 × 20 mm dish) in fully supplemented DMEM with or without additional TGF-β1 (5 μg/L) for 24 h, promoting their transdifferentiation into proto-myofibroblasts. Thereafter, cells were treated with celastrol or amphotericin B in the presence or absence of TGF-β1 (5 μg/L) for an additional 48 h. Negative controls treated with solvent only were included for every sampling time. The final DMSO content of 0.04% (v/v) was kept constant in all inhibition experiments. […]
The RNA extraction from cell lysates and cDNA synthesis for mRNA and miRNA expression analysis were performed as described previously.
Quantitative real-time polymerase chain reaction (qRT-PCR) analysis using a LightCycler 480 Instrument II system (Roche, Basel, Swiss) was performed as previously described. The qRT-PCR experiments were conducted with three biological and three technical replicates per donor-derived primary cell culture, unless otherwise stated. The intron-spanning primer sequences used are listed in [7] and Table 1. The geometric mean of the expression levels of the housekeeping genes SDHA, RPL13A and B2M were calculated for expression normalization. The relative target gene mRNA expressions were determined by the ΔΔCT method considering the PCR efficiency. All normalized gene expression levels shown were referred to the respective target gene expression of one primary cell culture sample for the relative comparison of multiple biological samples per experiment and figures.

XT-I = target: T1, XT-I (Homo sapiens, UniProt Q86Y38); assay: Cellular (extra- and intracellular) XT-I activity of NHDFs by UPLC-ESI-MS/MS XT-I assay; assay type: cell-based; conditions: for extracellular XT-I activity relative to DMSO control / intracellular XT activity compared to DMSO control: then inhibitor-free media 48 h (96 h)
T1 sequence (Q86Y38 260-959 limits assumed): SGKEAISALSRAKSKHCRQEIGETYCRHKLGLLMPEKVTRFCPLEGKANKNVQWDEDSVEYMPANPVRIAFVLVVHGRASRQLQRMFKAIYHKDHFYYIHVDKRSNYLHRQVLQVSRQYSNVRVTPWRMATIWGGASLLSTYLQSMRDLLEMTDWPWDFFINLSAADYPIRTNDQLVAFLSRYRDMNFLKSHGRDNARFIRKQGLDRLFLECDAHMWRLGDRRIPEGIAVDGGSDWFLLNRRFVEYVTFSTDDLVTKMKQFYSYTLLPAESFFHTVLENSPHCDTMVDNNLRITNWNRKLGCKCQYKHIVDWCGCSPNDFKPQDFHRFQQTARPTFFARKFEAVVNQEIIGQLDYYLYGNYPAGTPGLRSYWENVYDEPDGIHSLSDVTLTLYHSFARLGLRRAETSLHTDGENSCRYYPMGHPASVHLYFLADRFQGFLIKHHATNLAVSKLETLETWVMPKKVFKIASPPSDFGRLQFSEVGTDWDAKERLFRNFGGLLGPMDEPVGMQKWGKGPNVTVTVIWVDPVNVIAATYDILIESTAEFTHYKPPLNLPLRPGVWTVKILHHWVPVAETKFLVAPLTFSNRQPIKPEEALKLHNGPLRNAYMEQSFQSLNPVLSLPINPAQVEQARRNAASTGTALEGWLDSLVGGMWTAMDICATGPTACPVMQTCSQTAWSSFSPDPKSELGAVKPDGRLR
Excerpt: The measurement of relative XT-I activity among different samples is based on the XT-catalyzed incorporation of xylose from UDP-D-xylose on a modified bikunin-derived peptide after a fixed reaction time. The assay was originally developed for the determination of XT activity in human- or cell-culture-derived samples [13] by ultra-performance liquid chromatography/electrospray ionization tandem mass spectrometry (UPLC/ESI-MS/MS). The UPLC/ESI-MS/MS XT assay was recently modified toward a XT-I selective activity determination in human serum and cell culture samples (unpublished data). The relative intensities of the xylosylated peptide species abundance obtained with the respective m/z ratio were directly proportional to the relative XT-I activity of the sample. The XT-I activity determined is expressed in arbitrary units and normalized to the total protein content per 1 mL sample volume in cell culture approaches. A calibrator probe with a fixed amount of recombinant XT-I enzyme was included in every UPLC-MS/MS XT-I assay for assay comparability across multiple runs. The assay reaction mixture (50 μL) contained 50% (v/v) of the respective XT-I enzyme solution and 50% (v/v) reaction buffer. The final XT-I assay contained 25 mM MES buffer (pH 6.5), 25 mM KF buffer, 5 mM MnCl2, 5 mM MgCl2, 7.0 μM modified acceptor peptide and 30 μM UDP-D-xylose. The sample preparation for UPLC/ESI-MS/MS was performed according to [13]. In brief, after sample incubation at 37 °C for 24 h, the reaction was stopped by heating at 99 °C for 10 min. After centrifugation (10,000× g, 10 min) the supernatant was diluted fivefold with UPLC water for analysis. All cell-based XT-I assays were carried out in three biological and three technical replicates per donor-derived primary cell culture, while the XT-I activity determination for screening or kinetic purposes was carried out at least in technical duplicates.
A former established cell culture model was utilized to investigate the effect of putative XT-I inhibitors on NHDFs. The inhibition studies were carried out with final inhibitor concentrations of 0.5, 1.0, 2.0 or 4.0 μM diluted in fully supplemented DMEM. In brief, unless otherwise stated, NHDFs were cultivated with a low density of 50 cells per mm^2 on a hard tissue culture substrate (100 × 20 mm dish) in fully supplemented DMEM with or without additional TGF-β1 (5 μg/L) for 24 h, promoting their transdifferentiation into proto-myofibroblasts. Thereafter, cells were treated with celastrol or amphotericin B in the presence or absence of TGF-β1 (5 μg/L) for an additional 48 h. Negative controls treated with solvent only were included for every sampling time. The final DMSO content of 0.04% (v/v) was kept constant in all inhibition experiments.
The cell culture supernatant was collected to analyze the extracellular XT-I activity, whereas the same cell culture monolayer was lysed using a fixed amount of 0.75 mL Nonidet P-40 (NP-40)-buffer (50 mM TRIS, 150 mM NaCl, 1% NP-40, pH 7.8) for the analysis of intracellular XT-I activities. After sample centrifugation (10,000× g, 10 min, 4 °C), the supernatant contained the intracellular XT-I protein. The lysates were also used for the BCA assay. The cellular XT-I activities were measured 48 h after inhibitor treatment (48 h) or an additional 48 h after inhibitor removal (96 h).

[1] = 2.0 μM with TGF-β1 (5 μg/L) 48 h
[2] = 1.0 μM with TGF-β1 (5 μg/L) 48 h

C[C@@H]1[C@H](O)[C@@H](C)/C=C/C=C/C=C/C=C/C=C/C=C/C=C/[C@H](O[C@@H]2O[C@H](C)[C@@H](O)[C@H](N)[C@@H]2O)C[C@@H]2O[C@](O)(C[C@@H](O)C[C@@H](O)[C@H](O)CC[C@@H](O)C[C@@H](O)CC(=O)O[C@H]1C)C[C@H](O)[C@H]2C(=O)O [Compound 17, Amphotericin B]
TGF-β1-mediated XYLT1 mRNA expression relative to TGF-β1 only (XYLT1 mRNA expression; 0.5 μM): 0.9 ± 0.07 fold
basal XYLT1 mRNA expression relative to control (XYLT1 mRNA expression; 0.5 μM, without TGF-β1): 0.6 ± 0.06 fold
TGF-β1-mediated XYLT1 mRNA expression relative to TGF-β1 only (XYLT1 mRNA expression; 1.0 μM): 0.8 ± 0.06 fold
basal XYLT1 mRNA expression relative to control (XYLT1 mRNA expression; 1.0 μM, without TGF-β1): 0.6 ± 0.05 fold
TGF-β1-mediated XYLT1 mRNA expression relative to TGF-β1 only (XYLT1 mRNA expression; 2.0 μM): 0.7 ± 0.03 fold
basal XYLT1 mRNA expression relative to DMSO control (XYLT1 mRNA expression; 2.0 μM, without TGF-β1): 0.6 ± 0.09 fold
extracellular XT-I activity relative to DMSO control (XT-I; [1]): 0.6 ± 0.03 fold
intracellular XT activity compared to DMSO control (XT-I; [1]): did not result in any detectable changes

CC1=C(O)C(=O)C=C2C1=CC=C1[C@@]2(C)CC[C@@]2(C)[C@@H]3C[C@](C)(C(=O)O)CC[C@]3(C)CC[C@]12C [Compound 68, Celastrol]
TGF-β1-mediated XYLT1 mRNA expression relative to TGF-β1 only (XYLT1 mRNA expression; 0.5 μM): nor effected
basal XYLT1 mRNA expression relative to control (XYLT1 mRNA expression; 0.5 μM, without TGF-β1): neither changed
TGF-β1-mediated XYLT1 mRNA expression relative to TGF-β1 only (XYLT1 mRNA expression; 1.0 μM): 0.8 ± 0.07 fold
basal XYLT1 mRNA expression relative to control (XYLT1 mRNA expression; 1.0 μM, without TGF-β1): 0.8 ± 0.06 fold
extracellular XT-I activity relative to untreated cells (XT-I; 0.5 μM, 48 h, inhibitor still present in supernatant (Figure S3)): 0.8 ± 0.07 fold
extracellular XT-I activity relative to DMSO control (XT-I; [2]): 0.9 ± 0.06 fold
intracellular XT activity compared to DMSO control (XT-I; [2]): did not result in any detectable changes
intracellular XT activity (XT-I; inhibitor present 48 h (Figure S3 setup, 0.5 μM)): No intracellular XT activity changes were observed
